According to ChEMBL document CHEMBL5724914, “Linking interpersonal differences in gut microbiota composition and drug biotransformation activity” (2024):

Legend:
[1] = (§1) The drug is tested on WLS-098 corresponding to human gut metagenome with ENA study accession number: PRJEB37062 and ENA sample accession number: ERS12561754 for biotransformation under anaerobic condition. The drug concentrations were measured over 9 timepoints collected between 0 and 24 hours of incubation by liquid-chromatography-coupled mass spectrometry (LC–MS); conditions: 2 µM
[2] = human gut metagenome, 24 h, 2 µM
[3] = as §1, with “WLS-038” for “WLS-098”, “ERS12561745” for “ERS12561754”; conditions: 2 µM
[4] = human gut metagenome, 24 h, 2 µM; remark: listed apart in the source
[5] = human gut metagenome, 24 h, 2 µM; remark: listed apart in the source
[6] = human gut metagenome, 24 h, 2 µM; remark: listed apart in the source
[7] = as §1, with “WLS-220” for “WLS-098”, “ERS12561769” for “ERS12561754”; conditions: 2 µM
[8] = as §1, with “Z-020” for “WLS-098”, “rabbit” for “human”, “ERS12561819” for “ERS12561754”; conditions: 2 µM
[9] = human gut metagenome, 24 h, 2 µM; remark: listed apart in the source
[10] = as §1, with “WLS-240” for “WLS-098”, “ERS12561773” for “ERS12561754”; conditions: 2 µM
[11] = as §1, with “Z-010” for “WLS-098”, “to” for “to human gut”, “ERS12561810” for “ERS12561754”; conditions: 2 µM
[12] = human gut metagenome, 24 h, 2 µM; remark: listed apart in the source
[13] = human gut metagenome, 24 h, 2 µM; remark: listed apart in the source
[14] = human gut metagenome, 24 h, 2 µM; remark: listed apart in the source
[15] = human gut metagenome, 24 h, 2 µM; remark: listed apart in the source
[16] = as §1, with “Z-004” for “WLS-098”, “to” for “to human gut”, “ERS12561804” for “ERS12561754”; conditions: 2 µM
[17] = as §1, with “WLS-007” for “WLS-098”, “ERS12561742” for “ERS12561754”; conditions: 2 µM
[18] = as §1, with “WLS-073” for “WLS-098”, “ERS12561749” for “ERS12561754”; conditions: 2 µM
[19] = human gut metagenome, 24 h, 2 µM; remark: listed apart in the source
[20] = as §1, with “Z-008” for “WLS-098”, “to” for “to human gut”, “ERS12561808” for “ERS12561754”; conditions: 2 µM
Also: call rule not given here.

SMILES	Bacterial Biotransformation [1]	Bacterial Biotransformation [2]	Bacterial Biotransformation [3]	Bacterial Biotransformation [4]	Bacterial Biotransformation [5]	Bacterial Biotransformation [6]	Bacterial Biotransformation [7]	Bacterial Biotransformation [8]	Bacterial Biotransformation [9]	Bacterial Biotransformation [10]	Bacterial Biotransformation [11]	Bacterial Biotransformation [12]	Bacterial Biotransformation [13]	Bacterial Biotransformation [14]	Bacterial Biotransformation [15]	Bacterial Biotransformation [16]	Bacterial Biotransformation [17]	Bacterial Biotransformation [18]	Bacterial Biotransformation [19]	Bacterial Biotransformation [20]
Cc1cn([C@H]2C[C@H](N=[N+]=[N-])[C@@H](CO)O2)c(=O)[nH]c1=O [ZIDOVUDINE]	Compound NOT metabolized	Compound NOT metabolized	Compound NOT metabolized	Compound NOT metabolized	Compound NOT metabolized	Compound NOT metabolized	Compound NOT metabolized	Compound metabolized	Compound NOT metabolized	Compound NOT metabolized	Compound NOT metabolized	Compound NOT metabolized	Compound NOT metabolized	Compound metabolized	Compound NOT metabolized	Compound metabolized	Compound NOT metabolized	Compound NOT metabolized	Compound NOT metabolized	Compound NOT metabolized
CCC1(c2ccc(N)cc2)CCC(=O)NC1=O (stereo not given) [AMINOGLUTETHIMIDE]	Compound NOT metabolized	Compound NOT metabolized	Compound NOT metabolized	Compound NOT metabolized	Compound NOT metabolized	Compound NOT metabolized	Compound NOT metabolized	Compound NOT metabolized	Compound NOT metabolized	Compound NOT metabolized	Compound NOT metabolized	Compound NOT metabolized	Compound NOT metabolized	Compound NOT metabolized	Compound NOT metabolized	Compound NOT metabolized	Compound NOT metabolized	Compound NOT metabolized	Compound NOT metabolized	Compound NOT metabolized
COc1cc2c(c(OC)c1OC)-c1ccc(OC)c(=O)cc1[C@@H](NC(C)=O)CC2 [COLCHICINE]	Compound NOT metabolized	Compound metabolized	Compound NOT metabolized	Compound NOT metabolized	Compound metabolized	Compound NOT metabolized	Compound metabolized	Compound NOT metabolized	Compound NOT metabolized	Compound metabolized	Compound metabolized	Compound NOT metabolized	Compound metabolized	Compound NOT metabolized	Compound metabolized	Compound NOT metabolized	Compound metabolized	Compound metabolized	Compound NOT metabolized	Compound NOT metabolized
OC(Cn1cncn1)(Cn1cncn1)c1ccc(F)cc1F [FLUCONAZOLE]	Compound metabolized	Compound NOT metabolized	Compound NOT metabolized	Compound NOT metabolized	Compound metabolized	Compound NOT metabolized	Compound NOT metabolized	Compound NOT metabolized	Compound NOT metabolized	Compound metabolized	Compound NOT metabolized	Compound NOT metabolized	Compound metabolized	Compound NOT metabolized	Compound metabolized	Compound NOT metabolized	Compound metabolized	Compound NOT metabolized	Compound NOT metabolized	Compound NOT metabolized
CC(C(=O)O)c1ccc2c(c1)Cc1cccnc1O2 (stereo not given) [PRANOPROFEN]	Compound metabolized	Compound metabolized	Compound metabolized	Compound metabolized	Compound metabolized	Compound metabolized	Compound metabolized	Compound metabolized	Compound metabolized	Compound metabolized	Compound metabolized	Compound metabolized	Compound metabolized	Compound metabolized	Compound metabolized	Compound metabolized	Compound metabolized	Compound metabolized	Compound metabolized	Compound metabolized
CCOc1ccc(NC(C)=O)cc1 [PHENACETIN]	Compound NOT metabolized	Compound NOT metabolized	Compound NOT metabolized	Compound NOT metabolized	Compound NOT metabolized	Compound NOT metabolized	Compound NOT metabolized	Compound NOT metabolized	Compound NOT metabolized	Compound NOT metabolized	Compound NOT metabolized	Compound NOT metabolized	Compound NOT metabolized	Compound NOT metabolized	Compound NOT metabolized	Compound NOT metabolized	Compound NOT metabolized	Compound NOT metabolized	Compound NOT metabolized	Compound NOT metabolized
O=c1n(CCCN2CCN(c3cccc(Cl)c3)CC2)nc2ccccn12 [TRAZODONE]	Compound metabolized	Compound metabolized	Compound NOT metabolized	Compound NOT metabolized	Compound metabolized	Compound NOT metabolized	Compound metabolized	Compound NOT metabolized	Compound NOT metabolized	Compound metabolized	Compound metabolized	Compound metabolized	Compound metabolized	Compound metabolized	Compound metabolized	Compound metabolized	Compound metabolized	Compound metabolized	Compound NOT metabolized	Compound NOT metabolized
C=CCc1ccccc1OCC(O)CNC(C)C (stereo not given) [ALPRENOLOL]	Compound metabolized	Compound NOT metabolized	Compound NOT metabolized	Compound NOT metabolized	Compound metabolized	Compound NOT metabolized	Compound metabolized	Compound NOT metabolized	Compound NOT metabolized	Compound metabolized	Compound NOT metabolized	Compound metabolized	Compound metabolized	Compound NOT metabolized	Compound metabolized	Compound NOT metabolized	Compound NOT metabolized	Compound NOT metabolized	Compound NOT metabolized	Compound NOT metabolized
